Laboratory results reported in ChEMBL document CHEMBL1201861, “Genomics of Drug Sensitity in Cancer screening data, Wellcome Trust Sanger Institute”.
pIC50: −log10 of the molar value.

Assays:
Assay in all cases: cells
Format in all cases: functional, cell-based
Conditions in all cases: Homo sapiens
EW-24 = test system: EW-24;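 note: human EW-24 cancer cell line, growth inhibition read out via a cell viability assay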
Description: SANGER: Inhibition of human EW-24 cell growth in a cell viability assay.

SW 954 = test system: SW 954;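 note: growth inhibition of SW954 human cancer cells, read out as cell viability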
Description: SANGER: Inhibition of human SW954 cell growth in a cell viability assay.

ES4 = test system: ES4;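 note: growth inhibition of human ES4 cells, read out by a cell viability assay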
Description: SANGER: Inhibition of human ES4 cell growth in a cell viability assay.

MZ1-PC = test system: MZ1-PC;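 note: cell viability assay measuring growth inhibition of human MZ1-PC cells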
Description: SANGER: Inhibition of human MZ1-PC cell growth in a cell viability assay.

MN-60 = test system: MN-60;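 note: growth inhibition of the MN-60 cell line, determined with a cell viability assay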
Description: SANGER: Inhibition of human MN-60 cell growth in a cell viability assay.

HEL = test system: HEL;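 note: growth inhibition of HEL cells, read out with a cell viability assay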
Description: SANGER: Inhibition of human HEL cell growth in a cell viability assay.

NCI-H1648 = test system: NCI-H1648;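 note: cell viability assay measuring inhibition of NCI-H1648 cell growth, from the Sanger screening data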
Description: SANGER: Inhibition of human NCI-H1648 cell growth in a cell viability assay.

LS-123 = test system: LS-123
Description: SANGER: Inhibition of human LS-123 cell growth in a cell viability assay.

EC-GI-10 = test system: EC-GI-10
Description: SANGER: Inhibition of human EC-GI-10 cell growth in a cell viability assay.

EW-16 = test system: EW-16;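 note: growth inhibition of human EW-16 cells, read out as cell viability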
Description: SANGER: Inhibition of human EW-16 cell growth in a cell viability assay.

TK-10 = test system: TK-10;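 note: growth inhibition of TK-10 cells, read out in a cell viability assay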
Description: SANGER: Inhibition of human TK10 cell growth in a cell viability assay.

RS4-11 = test system: RS4-11;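 note: growth inhibition of RS4-11 cells, read out by a cell viability assay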
Description: SANGER: Inhibition of human RS4-11 cell growth in a cell viability assay.

MFH-ino = test system: MFH-ino;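 note: growth inhibition of human MFH-ino cells, read out by a cell viability assay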
Description: SANGER: Inhibition of human MFH-ino cell growth in a cell viability assay.

no-10 = test system: no-10;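 note: growth inhibition of no-10 cells, read out with a cell viability assay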
Description: SANGER: Inhibition of human no-10 cell growth in a cell viability assay.

LB373-MEL-D = test system: LB373-MEL-D;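 note: growth inhibition of the cell line, read out in a cell viability assay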
Description: SANGER: Inhibition of human LB373-MEL-D cell growth in a cell viability assay.

CCRF-CEM = test system: CCRF-CEM;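 note: inhibition of CCRF-CEM cell growth, measured by a cell viability assay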
Description: SANGER: Inhibition of human CCRF-CEM cell growth in a cell viability assay.

LS-513 = test system: LS-513
Description: SANGER: Inhibition of human LS-513 cell growth in a cell viability assay.

LU-139 = test system: LU-139
Description: SANGER: Inhibition of human LU-139 cell growth in a cell viability assay.

GI-1 = test system: GI-1;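 note: growth inhibition of human GI-1 cells, measured with a cell viability readout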
Description: SANGER: Inhibition of human GI-1 cell growth in a cell viability assay.

ML-2 = test system: ML-2;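 note: growth inhibition of ML-2 cells, measured with a cell viability readout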
Description: SANGER: Inhibition of human ML-2 cell growth in a cell viability assay.

NOMO-1 = test system: NOMO-1;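 note: growth inhibition of human NOMO-1 cells measured by a cell viability assay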
Description: SANGER: Inhibition of human NOMO-1 cell growth in a cell viability assay.

EB-3 = test system: EB-3;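 note: human EB-3 cells, growth inhibition read out via a cell viability assay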
Description: SANGER: Inhibition of human EB-3 cell growth in a cell viability assay.

NCI-H1299 = test system: NCI-H1299;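 note: growth inhibition of human NCI-H1299 cells, read out by a cell viability assay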
Description: SANGER: Inhibition of human NCI-H1299 cell growth in a cell viability assay.

EW-11 = test system: EW-11;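 note: growth inhibition of human EW-11 cells, measured with a cell viability assay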
Description: SANGER: Inhibition of human EW-11 cell growth in a cell viability assay.

EW-3 = test system: EW-3;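 note: cell viability assay read-out, IC50 reflects inhibition of growth of the EW-3 cells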
Description: SANGER: Inhibition of human EW-3 cell growth in a cell viability assay.

BB49-HNC = test system: BB49-HNC;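 note: cell viability assay read-out, reported as inhibition of BB49-HNC cell growth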
Description: SANGER: Inhibition of human BB49-HNC cell growth in a cell viability assay.

OCI-AML2 = test system: OCI-AML2;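 note: growth inhibition of OCI-AML2 cells, read out with a cell viability assay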
Description: SANGER: Inhibition of human OCI-AML2 cell growth in a cell viability assay.

HCE-T = test system: HCE-T;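 note: cell viability assay read-out, reporting inhibition of HCE-T cell growth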
Description: SANGER: Inhibition of human HCE-T cell growth in a cell viability assay.

KURAMOCHI = test system: KURAMOCHI;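 note: growth inhibition of KURAMOCHI cells, read out with a cell viability assay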
Description: SANGER: Inhibition of human KURAMOCHI cell growth in a cell viability assay.

NCI-H446 = test system: NCI-H446;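 note: growth inhibition of NCI-H446 cells determined by a cell viability assay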
Description: SANGER: Inhibition of human NCI-H446 cell growth in a cell viability assay.

NB5 = test system: NB5;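 note: growth inhibition of NB5 cells, read out as cell viability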
Description: SANGER: Inhibition of human NB5 cell growth in a cell viability assay.

DU-4475 = test system: DU-4475
Description: SANGER: Inhibition of human DU-4475 cell growth in a cell viability assay.

SNU-5 = test system: SNU-5;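 note: cell viability readout used to measure growth inhibition in human NCI-SNU-5 cells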
Description: SANGER: Inhibition of human NCI-SNU-5 cell growth in a cell viability assay.

OS-RC-2 = test system: OS-RC-2;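 note: growth inhibition of human OS-RC-2 cells, measured by a cell viability assay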
Description: SANGER: Inhibition of human OS-RC-2 cell growth in a cell viability assay.

BT-474 = test system: BT-474
Description: SANGER: Inhibition of human BT-474 cell growth in a cell viability assay.

ETK-1 = test system: ETK-1;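 note: growth inhibition of human ETK-1 cells, read out with a cell viability assay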
Description: SANGER: Inhibition of human ETK-1 cell growth in a cell viability assay.

ES6 = test system: ES6;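 note: growth inhibition of human ES6 cells, read out with a cell viability assay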
Description: SANGER: Inhibition of human ES6 cell growth in a cell viability assay.

SK-UT-1 = test system: SK-UT-1;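 note: growth inhibition of SK-UT-1 cells, measured by a cell viability assay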
Description: SANGER: Inhibition of human SK-UT-1 cell growth in a cell viability assay.

EW-13 = test system: EW-13;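 note: growth inhibition of EW-13 cells, read out with a cell viability assay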
Description: SANGER: Inhibition of human EW-13 cell growth in a cell viability assay.

LNCaP-Clone-FGC = test system: LNCaP-Clone-FGC
Description: SANGER: Inhibition of human LNCaP-Clone-FGC cell growth in a cell viability assay.

NCI-H1304 = test system: NCI-H1304;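 note: growth inhibition of the cancer cell line, measured in a cell viability assay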
Description: SANGER: Inhibition of human NCI-H1304 cell growth in a cell viability assay.

SF-268 = test system: SF-268;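 note: growth inhibition of SF-268 cells determined with a cell viability assay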
Description: SANGER: Inhibition of human SF268 cell growth in a cell viability assay.

OMC-1 = test system: OMC-1;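 note: growth inhibition of the OMC-1 cell line, measured by a cell viability assay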
Description: SANGER: Inhibition of human OMC-1 cell growth in a cell viability assay.

DMS-79 = test system: DMS-79;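 note: growth inhibition measured with a cell viability assay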
Description: SANGER: Inhibition of human DMS-79 cell growth in a cell viability assay.

SK-MEL-1 = test system: SK-MEL-1;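 note: growth inhibition of human SK-MEL-1 cells, read out by a cell viability assay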
Description: SANGER: Inhibition of human SK-MEL-1 cell growth in a cell viability assay.

KE-37 = test system: KE-37;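 note: growth inhibition of KE-37 cells, read out with a cell viability assay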
Description: SANGER: Inhibition of human KE-37 cell growth in a cell viability assay.

no-11 = test system: no-11;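 note: growth inhibition of human NO-11 cells, read out with a cell viability assay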
Description: SANGER: Inhibition of human no-11 cell growth in a cell viability assay.

TE-6 = test system: TE-6;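 note: growth inhibition of TE-6 cells, read out with a cell viability assay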
Description: SANGER: Inhibition of human TE-6 cell growth in a cell viability assay.

MPP-89 = test system: MPP-89;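 note: growth inhibition of human MPP-89 cells, read out with a cell viability assay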
Description: SANGER: Inhibition of human MPP-89 cell growth in a cell viability assay.

COLO-824 = test system: COLO-824
Description: SANGER: Inhibition of human COLO-824 cell growth in a cell viability assay.

ATN-1 = test system: ATN-1;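 note: growth inhibition of human ATN-1 cells, read out with a cell viability assay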
Description: SANGER: Inhibition of human ATN-1 cell growth in a cell viability assay.

VA-ES-BJ = test system: VA-ES-BJ;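 note: growth inhibition of the VA-ES-BJ cell line, read out by a cell viability assay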
Description: SANGER: Inhibition of human VA-ES-BJ cell growth in a cell viability assay.

C2BBe1 = test system: C2BBe1;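 note: growth inhibition of C2BBe1 cells, read out through a viability assay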
Description: SANGER: Inhibition of human C2BBe1 cell growth in a cell viability assay.

C8166 = test system: C8166;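 note: growth inhibition of human C8166 cells measured by a cell viability assay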
Description: SANGER: Inhibition of human C8166 cell growth in a cell viability assay.

A498 = test system: A498;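 note: growth inhibition of human A498 cells, read out with a cell viability assay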
Description: SANGER: Inhibition of human A498 cell growth in a cell viability assay.

Cc1ccc(NC(=O)c2cccc(C(C)(C)C#N)c2)cc1Nc1ccc2ncn(C)c(=O)c2c1
pIC50 (EW-24): 5.57
pIC50 (SW 954): < 5.40
pIC50 (ES4): < 5.40
pIC50 (MZ1-PC): 6.55
pIC50 (MN-60): < 5.40
pIC50 (HEL): < 5.40
pIC50 (NCI-H1648): 6.17
pIC50 (LS-123): < 5.40
pIC50 (EC-GI-10): < 5.40
pIC50 (EW-16): < 5.40
pIC50 (TK-10): < 5.40
pIC50 (RS4-11): < 5.40
pIC50 (MFH-ino): < 5.40
pIC50 (no-10): < 5.40
pIC50 (LB373-MEL-D): 5.78
pIC50 (CCRF-CEM): < 5.40
pIC50 (LS-513): 7.13
pIC50 (LU-139): < 5.40
pIC50 (GI-1): < 5.40
pIC50 (ML-2): 6.43
pIC50 (NOMO-1): 5.92
pIC50 (EB-3): < 5.40
pIC50 (NCI-H1299): < 5.40
pIC50 (EW-11): < 5.40
pIC50 (EW-3): < 5.40
pIC50 (BB49-HNC): 6.45
pIC50 (OCI-AML2): 7.77
pIC50 (HCE-T): < 5.40
pIC50 (KURAMOCHI): < 5.40
pIC50 (NCI-H446): < 5.40
pIC50 (NB5): 5.71
pIC50 (DU-4475): 7.99
pIC50 (SNU-5): 5.55
pIC50 (OS-RC-2): < 5.40
pIC50 (BT-474): < 5.40
pIC50 (ETK-1): < 5.40
pIC50 (ES6): < 5.40
pIC50 (SK-UT-1): < 5.40
pIC50 (EW-13): < 5.40
pIC50 (LNCaP-Clone-FGC): < 5.40
pIC50 (NCI-H1304): < 5.40
pIC50 (SF-268): < 5.40
pIC50 (OMC-1): < 5.40
pIC50 (DMS-79): < 5.40
pIC50 (SK-MEL-1): 6.42
pIC50 (KE-37): < 5.40
pIC50 (no-11): < 5.40
pIC50 (TE-6): < 5.40
pIC50 (MPP-89): < 5.40
pIC50 (COLO-824): < 5.40
pIC50 (ATN-1): < 5.40
pIC50 (VA-ES-BJ): < 5.40
pIC50 (C2BBe1): < 5.40
pIC50 (C8166): < 5.40

Cc1nc(Nc2ncc(C(=O)Nc3c(C)cccc3Cl)s2)cc(N2CCN(CCO)CC2)n1 [DASATINIB]
pIC50 (A498): 7.14
pIC50 (EW-24): 6.11
pIC50 (SW 954): 7.53
pIC50 (ES4): 5.98
pIC50 (MZ1-PC): 7.51
pIC50 (MN-60): < 5.89
pIC50 (HEL): < 5.89
pIC50 (NCI-H1648): 7.70
pIC50 (LS-123): 6.85
pIC50 (EC-GI-10): < 5.89
pIC50 (EW-16): 6.12
pIC50 (TK-10): 7.93
pIC50 (RS4-11): < 5.89
pIC50 (MFH-ino): 7.33
pIC50 (no-10): 6.50
pIC50 (LB373-MEL-D): 6.08
pIC50 (CCRF-CEM): < 5.89
pIC50 (LS-513): < 5.89
pIC50 (LU-139): < 5.89
pIC50 (GI-1): < 5.89
pIC50 (ML-2): < 5.89
pIC50 (NOMO-1): < 5.89
pIC50 (EB-3): < 5.89
pIC50 (EW-11): < 5.89
pIC50 (EW-3): < 5.89
pIC50 (BB49-HNC): 6.41
pIC50 (OCI-AML2): < 5.89
pIC50 (HCE-T): < 5.89
pIC50 (KURAMOCHI): 7.46
pIC50 (NCI-H446): 6.20
pIC50 (NB5): < 5.89
pIC50 (DU-4475): < 5.89
pIC50 (SNU-5): < 5.89
pIC50 (OS-RC-2): 7.69
pIC50 (BT-474): < 5.89
pIC50 (ETK-1): 7.55
pIC50 (ES6): 7.50
pIC50 (SK-UT-1): < 5.89
pIC50 (EW-13): < 5.89
pIC50 (LNCaP-Clone-FGC): < 5.89
pIC50 (NCI-H1304): < 5.89
pIC50 (SF-268): 6.76
pIC50 (OMC-1): < 5.89
pIC50 (DMS-79): < 5.89
pIC50 (SK-MEL-1): < 5.89
pIC50 (KE-37): < 5.89
pIC50 (no-11): 6.30
pIC50 (TE-6): 5.92
pIC50 (MPP-89): 7.39
pIC50 (COLO-824): < 5.89
pIC50 (ATN-1): < 5.89
pIC50 (VA-ES-BJ): 7.41
pIC50 (C2BBe1): 7.08
pIC50 (C8166): < 5.89

CCn1c(-c2nonc2N)nc2cnc(Oc3cccc(NC(=O)c4ccc(OCCN5CCOCC5)cc4)c3)cc21 [GSK-269962A]
pIC50 (A498): < 5.60
pIC50 (EW-24): < 5.60
pIC50 (SW 954): < 5.60
pIC50 (ES4): < 5.60
pIC50 (MZ1-PC): < 5.60
pIC50 (MN-60): < 5.60
pIC50 (HEL): < 5.60
pIC50 (NCI-H1648): < 5.60
pIC50 (LS-123): < 5.60
pIC50 (EC-GI-10): < 5.60
pIC50 (EW-16): < 5.60
pIC50 (TK-10): < 5.60
pIC50 (RS4-11): < 5.60
pIC50 (MFH-ino): 6.19
pIC50 (no-10): 6.17
pIC50 (LB373-MEL-D): < 5.60
pIC50 (CCRF-CEM): < 5.60
pIC50 (LS-513): < 5.60
pIC50 (LU-139): < 5.60
pIC50 (GI-1): 8.28
pIC50 (ML-2): < 5.60
pIC50 (NOMO-1): < 5.60
pIC50 (EB-3): < 5.60
pIC50 (NCI-H1299): < 5.60
pIC50 (EW-11): < 5.60
pIC50 (EW-3): < 5.60
pIC50 (BB49-HNC): 8.10
pIC50 (OCI-AML2): < 5.60
pIC50 (HCE-T): < 5.60
pIC50 (KURAMOCHI): < 5.60
pIC50 (NCI-H446): < 5.60
pIC50 (NB5): < 5.60
pIC50 (DU-4475): < 5.60
pIC50 (SNU-5): < 5.60
pIC50 (OS-RC-2): < 5.60
pIC50 (BT-474): < 5.60
pIC50 (ETK-1): < 5.60
pIC50 (ES6): 6.61
pIC50 (SK-UT-1): < 5.60
pIC50 (EW-13): < 5.60
pIC50 (LNCaP-Clone-FGC): < 5.60
pIC50 (NCI-H1304): < 5.60
pIC50 (SF-268): < 5.60
pIC50 (OMC-1): < 5.60
pIC50 (DMS-79): < 5.60
pIC50 (SK-MEL-1): < 5.60
pIC50 (KE-37): < 5.60
pIC50 (no-11): < 5.60
pIC50 (TE-6): < 5.60
pIC50 (MPP-89): 5.90
pIC50 (COLO-824): < 5.60
pIC50 (ATN-1): < 5.60
pIC50 (VA-ES-BJ): < 5.60
pIC50 (C2BBe1): < 5.60
pIC50 (C8166): < 5.60
